Data on one compound can be found in PMC7646549, “Novel piperidine derivatives as colchicine binding site inhibitors induce apoptosis and inhibit epithelial-mesenchymal transition against prostate cancer PC3 cells” (Journal of Enzyme Inhibition and Medicinal Chemistry, 2020).

For the assay, the system named is T1, tubulin (β-tubulin, colchicine binding site).
T1 construct: gene TUBB; with α-tubulin
Description: in vitro tubulin polymerisation assay; supported by EBI competition assay (β-tubulin adduct) in PC3 cells. The assay is classed as biochemical.

For `COc1ccc(CN(C(=O)CN2C(=O)CCCC2=O)c2cc(OC)c(OC)c(OC)c2)cc1` [17a, 2–(2,6-Dioxopiperidin-1-yl)-N-(4-methoxybenzyl)-N-(3,4,5-trimethoxyphenyl) acetamide], the IC50 was found to be 2030 nM.

The IC50 is the concentration needed to halve the response being measured. A higher IC50 goes with weaker potency in that assay.
